In brackets after ≈: the same amount, converted by molar mass.
Columns and labels:
Bacillus cereus = experiment: In vitro antimicrobial activity against Bacillus cereus 11778; format: functional
Nucleic Acid = experiment: Apparent binding affinity against DNA (5'-ACAATTAA-3') was determined using DNase I footprinting titration method; format: nucleic-acid assay; details: read-out: Kd app
Mus musculus [1] = experiment: Acute tolerability of compound in 4 ICR female mice after intravenous administration was determined; No adverse effects; format: functional, organism-based
Staphylococcus aureus [2] = experiment: In vitro antimicrobial activity against methicillin resistant Staphylococcus aureus 27660; format: functional
[3] = In vitro antimicrobial activity against penicillin-intermediate Streptococcus pneumoniae 49619; format: functional
[4] = In vitro antimicrobial activity against penicillin resistant Streptococcus pneumoniae 51422; format: functional
Enterococcus faecalis [5] = experiment: In vitro antimicrobial activity against vancomycin-susceptible Enterococcus faecalis 29212; format: functional
Enterococcus faecalis [6] = experiment: In vitro antimicrobial activity against vancomycin-resistant Enterococcus faecalis 51559; format: functional
Candida albicans = experiment: In vitro antimicrobial activity against Candida albicans 38247; format: functional
Mus musculus [7] = experiment: Acute tolerability of compound in 4 ICR female mice after intravenous administration was determined; no adverse effects; format: functional, organism-based
Mus musculus [8] = experiment: Acute tolerability of compound in 4 ICR female mice after intravenous administration was determined; Lethality 1/4; format: functional, organism-based
Mus musculus [9] = experiment: Acute tolerability of compound […] female mice after intravenous administration was determined; Lethality 3/5; format: functional, organism-based
Enterococcus faecalis [10] = experiment: In vitro antimicrobial activity against vancomycin-resistant Enterococcus faecalis 51559
Mus musculus [11] = experiment: Acute tolerability of compound […] female mice after intravenous administration was determined; Lethality 5/5; format: functional, organism-based
Mus musculus [12] = experiment: Acute tolerability of compound […] female mice after intravenous administration was determined; 5/5 lethargy; format: functional, organism-based
Staphylococcus aureus [13] = experiment: In vitro antimicrobial activity against MSSA 13709; format: functional
Mus musculus [14] = experiment: Acute tolerability of compound in 5 ICR female mice after intravenous administration was determined; Lethality 1/5
[15] = Candida albicans, read-out: MIC

| MIC (Staphylococcus aureus [13]) | Structure (SMILES) | MIC (Bacillus cereus) | Kd (Nucleic Acid) | Acute tolerability (Mus musculus [1]) | MIC (Staphylococcus aureus [2]) | MIC [3] | MIC [4] | MIC (Enterococcus faecalis [5]) | MIC (Enterococcus faecalis [6]) | MIC (Candida albicans; [15]) | Acute tolerability (Mus musculus [7]) | MIC (Candida albicans) | Acute tolerability (Mus musculus [8]) | Acute tolerability (Mus musculus [9]) | MIC (Enterococcus faecalis [10]) | Acute tolerability (Mus musculus [11]) | Acute tolerability (Mus musculus [12]) | Acute tolerability (Mus musculus [14]) |
| --- | --- | --- | --- | --- | --- | --- | --- | --- | --- | --- | --- | --- | --- | --- | --- | --- | --- | --- |
| – | Cn1cc(NC(=O)c2cc(NC(=O)c3cc(NC(=O)c4cc5ccccc5cn4)cn3C)cn2C)cc1C(=O)NCCN1CCSCC1 | 0.25 µg/mL (≈ 0.374 µM) | 1 nM | No adverse effects | 0.125 µg/mL (≈ 0.187 µM) | 0.031 µg/mL (≈ 0.0464 µM) | 0.062 µg/mL (≈ 0.0928 µM) | 0.25 µg/mL (≈ 0.374 µM) | 0.125 µg/mL (≈ 0.187 µM) | > 32 µg/mL | – | – | – | – | – | – | – | – |
| – | Cn1cc(NC(=O)c2cc(NC(=O)c3cc(-c4sccc4Cl)cn3C)cn2C)cc1C(=O)NCCN1CCOCC1 | 1 µg/mL (≈ 1.67 µM) | 20 nM | – | 4 µg/mL (≈ 6.69 µM) | 0.125 µg/mL (≈ 0.209 µM) | 0.125 µg/mL (≈ 0.209 µM) | 1 µg/mL (≈ 1.67 µM) | 1 µg/mL (≈ 1.67 µM) | – | no adverse effects | > 32 µg/mL | – | – | – | – | – | – |
| – | Cn1cc(NC(=O)c2cc(NC(=O)c3cc(NC(=O)c4cn5ccsc5n4)cn3C)cn2C)cc1C(=O)NCCN1CCOCC1 | 2 µg/mL (≈ 3.09 µM) | – | – | – | 0.031 µg/mL (≈ 0.0479 µM) | – | 0.5 µg/mL (≈ 0.773 µM) | – | > 32 µg/mL | – | – | Lethality 1/4 | – | – | – | – | – |
| – | Cn1cc(NC(=O)c2cc(NC(=O)c3cc(NC(=O)c4sccc4Cl)cn3C)cn2C)cc1C(=O)NCCCN1CCCCC1 | 8 µg/mL (≈ 12.2 µM) | 50 nM | – | 8 µg/mL (≈ 12.2 µM) | 4 µg/mL (≈ 6.12 µM) | 16 µg/mL (≈ 24.5 µM) | 4 µg/mL (≈ 6.12 µM) | – | > 32 µg/mL | – | – | – | Lethality 3/5 | 16 µg/mL (≈ 24.5 µM) | – | – | – |
| – | Cc1cnc(-c2cc(C(=O)Nc3cc(C(=O)Nc4cc(C(=O)NCCN5CCOCC5)n(C)c4)n(C)c3)n(C)c2)cn1 | 1 µg/mL (≈ 1.74 µM) | – | – | 2 µg/mL (≈ 3.49 µM) | 0.25 µg/mL (≈ 0.436 µM) | 0.25 µg/mL (≈ 0.436 µM) | 0.5 µg/mL (≈ 0.872 µM) | 4 µg/mL (≈ 6.97 µM) | > 32 µg/mL | – | – | – | – | – | Lethality 5/5 | – | – |
| – | Cn1cc(NC(=O)c2cc(NC(=O)c3cc(NC(=O)c4sc5cc(F)ccc5c4Cl)cn3C)cn2C)cc1C(=O)NCCN1CCOCC1 | 0.25 µg/mL (≈ 0.353 µM) | – | No adverse effects | – | 0.125 µg/mL (≈ 0.176 µM) | – | 0.25 µg/mL (≈ 0.353 µM) | – | > 32 µg/mL | – | – | – | – | – | – | – | – |
| – | Cn1cc(NC(=O)c2cc(NC(=O)c3cc(NC(=O)c4sccc4Cl)cn3C)cn2C)cc1C(=O)NCCN1CCCCC1 | 0.5 µg/mL (≈ 0.782 µM) | 5 nM | – | 0.5 µg/mL (≈ 0.782 µM) | 0.25 µg/mL (≈ 0.391 µM) | 2 µg/mL (≈ 3.13 µM) | 0.5 µg/mL (≈ 0.782 µM) | – | 32 µg/mL (≈ 50.1 µM) | – | – | – | – | 2 µg/mL (≈ 3.13 µM) | – | 5/5 lethargy | – |
| > 32 µg/mL | Cn1cc(NC(=O)c2cc(NC(=O)c3cc(-c4nccs4)cn3C)cn2C)cc1C(=O)NCCN1CCOCC1 | – | – | – | – | > 32 µg/mL | – | > 32 µg/mL | – | – | – | – | – | – | – | – | – | – |
| – | Cn1cc(NC(=O)c2cc(NC(=O)c3cc(NC(=O)c4sccc4Cl)cn3C)cn2C)cc1C(=O)NCCN1CCC(F)CC1 | 1 µg/mL (≈ 1.52 µM) | 5 nM | – | 1 µg/mL (≈ 1.52 µM) | 0.031 µg/mL (≈ 0.0472 µM) | 0.125 µg/mL (≈ 0.19 µM) | 1 µg/mL (≈ 1.52 µM) | 0.5 µg/mL (≈ 0.761 µM) | > 32 µg/mL | – | – | – | – | – | – | – | Lethality 1/5 |
| – | Cn1cc(NC(=O)c2cc(NC(=O)c3cc(NC(=O)c4sccc4Cl)cn3C)cn2C)cc1C(=O)NCCN1CCSCC1 | 0.5 µg/mL (≈ 0.761 µM) | < 1 nM | No adverse effects | 1 µg/mL (≈ 1.52 µM) | 0.125 µg/mL (≈ 0.19 µM) | 0.062 µg/mL (≈ 0.0943 µM) | 0.5 µg/mL (≈ 0.761 µM) | 2 µg/mL (≈ 3.04 µM) | > 32 µg/mL | – | – | – | – | – | – | – | – |
| – | Cn1cc(NC(=O)c2cc(NC(=O)c3cc(-c4ccc(Cl)cc4F)cn3C)cn2C)cc1C(=O)NCCN1CCOCC1 | 0.5 µg/mL (≈ 0.82 µM) | 0.1 nM | – | 2 µg/mL (≈ 3.28 µM) | 0.25 µg/mL (≈ 0.41 µM) | 0.062 µg/mL (≈ 0.102 µM) | 0.5 µg/mL (≈ 0.82 µM) | 0.5 µg/mL (≈ 0.82 µM) | > 32 µg/mL | – | – | – | – | – | Lethality 5/5 | – | – |
| 16 µg/mL (≈ 26.2 µM) | Cn1cc(NC(=O)c2cc(NC(=O)c3cc(-c4ccc(F)cc4Cl)cn3C)cn2C)cc1C(=O)NCCN1CCOCC1 | – | – | – | – | 4 µg/mL (≈ 6.56 µM) | – | 8 µg/mL (≈ 13.1 µM) | – | – | – | – | – | – | – | – | – | – |
